Reference: US10342796B2, “Acrylanilide derivative, preparation method, and applications thereof in pharmacy” (Ancureall Pharmaceutical (Shanghai) Co., Ltd., priority 2015, dated 2019)
Where two headings read alike, the source gives them in different places.

Assays:
Assay in all cases: Growth inhibition GI50 in vitro (CCK8/MTT, 72 h)
AU565 (Her2 amp) = assay type: cell-based, human; conditions: Homo sapiens
H292 (EGFR WT) = assay type: cell-based; conditions: Homo sapiens, NCI-H292
H1975 (EGFR L858R/T790M) = assay type: cell-based, human; conditions: Homo sapiens, NCI-H1975
PC-9 (EGFR dE746-A750) = assay type: cell-based, human; conditions: Homo sapiens
HCC827 (EGFR dE746-A750) = assay type: cell-based, human; conditions: Homo sapiens
[1] = system: PC-9ER (EGFR delE746-A750/T790M); assay type: cell-based, human; conditions: Homo sapiens, PC-9/ER; EGFR mutant cell line; range of GI50; read-out: GI50 PC9ER
SK-BR-3 (Her2 amp) = assay type: cell-based, human; conditions: Homo sapiens
N87 (HER2 Amp) = assay type: cell-based, human; conditions: Homo sapiens
[2] = system: H460 (EGFR wt, Kras G61H); assay type: cell-based, human; conditions: Homo sapiens, NCI-H460
[3] = system: H1299 (EGFR wt, Nras Q61K); assay type: cell-based, human; conditions: Homo sapiens, NCI-H1299
[4] = system: A431 (EGFR WT, amplification and high expression); assay type: cell-based, human; conditions: Homo sapiens, A-431
A549 (EGFR WT) = assay type: cell-based, human; conditions: Homo sapiens
Calu-3 (Her2 amp) = assay type: cell-based; conditions: Homo sapiens
[5] = AU565, HER2 positive cell line, range of GI50, read-out: GI50 AU-565
[6] = AU565, EGFR wt, Her2 amp, read-out: GI50
[7] = EGFR mutant cell line, range of GI50, read-out: GI50 H1975
[8] = H1975, EGFR L858R/T790M, read-out: GI50
[9] = EGFR mutant cell line, range of GI50, read-out: GI50 PC-9
[10] = PC-9, EGFR dE746-A750, read-out: GI50
[11] = HCC827, EGFR mutant cell line, range of GI50, read-out: GI50 HCC827
[12] = HCC827, EGFR dE746-A750, read-out: GI50
[13] = SK-BR-3, HER2 positive cell line, range of GI50, read-out: GI50 SK-BR-3
[14] = SK-BR-3, EGFR wt, Her2 amp, read-out: GI50
[15] = HER2 positive cell line, range of GI50, read-out: GI50 N87
[16] = N87, EGFR wt, Her2 amp, read-out: GI50
[17] = EGFR wild type cell line, range of GI50, read-out: GI50 H460
[18] = H460, EGFR wt, Kras G61H, read-out: GI50
[19] = EGFR wild type cell line, range of GI50, read-out: GI50 H1299
[20] = H1299, EGFR wt, Nras Q61K, read-out: GI50
[21] = EGFR wild type cell line, range of GI50, read-out: GI50 A431
[22] = A549, EGFR wild type cell line, range of GI50, read-out: GI50 A549
[23] = A549, EGFR wt, Kras G12S, read-out: GI50
[24] = Calu-3, EGFR wt, Her2 amp, read-out: GI50

| Compound | GI50 (AU565 (Her2 amp); [5]) | GI50 (AU565 (Her2 amp); [6]) | GI50 (H292 (EGFR WT); H292, EGFR wt, read-out: GI50) | GI50 (H1975 (EGFR L858R/T790M); [7]) | GI50 (H1975 (EGFR L858R/T790M); [8]) | GI50 (PC-9 (EGFR dE746-A750); [9]) | GI50 (PC-9 (EGFR dE746-A750); [10]) | GI50 (HCC827 (EGFR dE746-A750); [11]) | GI50 (HCC827 (EGFR dE746-A750); [12]) | GI50 [1] | GI50 (SK-BR-3 (Her2 amp); [13]) | GI50 (SK-BR-3 (Her2 amp); [14]) | GI50 (N87 (HER2 Amp); [15]) | GI50 (N87 (HER2 Amp); [16]) | GI50 [2, 17] | GI50 [2, 18] | GI50 [3, 19] | GI50 [3, 20] | GI50 [4, 21] | GI50 (A549 (EGFR WT); [22]) | further results |
| --- | --- | --- | --- | --- | --- | --- | --- | --- | --- | --- | --- | --- | --- | --- | --- | --- | --- | --- | --- | --- | --- |
| C=CC(=O)Nc1cc(Nc2nccc(Nc3cccc(Cl)c3)n2)c(OC)cc1N(C)CCN(C)C [Compound 2, N-(5-(4-(3-chloro-phenylamino)-pyrimidin-2-ylamino)-2-(2-(dimethylamino-ethyl)-methyl-amino)-4-methoxyl-phenyl)-acrylamide] | 10 to 100 nM | 15.4 nM | > 1000 nM | 10 to 100 nM | 14.6 nM | < 10 nM | 5.4 nM | < 10 nM | 2.3 nM | < 10 nM | 10 to 100 nM | 19.5 nM | < 10 nM | 10 nM | > 1000 nM | > 1000 nM | > 1000 nM | > 1000 nM | 100 to 1000 nM | > 1000 nM | GI50 ([4]; A431, EGFR wt, read-out: GI50): 156 nM; GI50 (A549 (EGFR WT); [23]): > 1000 nM; GI50 (Calu-3 (Her2 amp); [24]): 31.2 nM |
| C=CC(=O)Nc1cc(Nc2nccc(Nc3ccc(OCc4ccccn4)c(Cl)c3)n2)c(OC)cc1N(C)CCN(C)C [Compound 18, N-(5-(4-(3-chloro-4-(pyridin-2-methoxyl)phenylamino)pyrimidin-2-ylamino)-2-((2-(dimethylamino)ethyl)(methyl)amino)-4-methoxyl-phenyl)-acrylamide] | 10 to 100 nM | 15.6 nM | > 1000 nM | 10 to 100 nM | 14.6 nM | 10 to 100 nM | 14.5 nM | 10 to 100 nM | 9.4 nM | < 10 nM | 10 to 100 nM | 39.1 nM | 10 to 100 nM | 19.5 nM | > 1000 nM | > 1000 nM | > 1000 nM | > 1000 nM | 100 to 1000 nM | > 1000 nM | GI50 ([4]; A431, EGFR wt, read-out: GI50): 438 nM; GI50 (A549 (EGFR WT); [23]): > 1000 nM; GI50 (Calu-3 (Her2 amp); [24]): 23.4 nM |
| C=CC(=O)Nc1cc(Nc2ncc(Cl)c(Nc3ccc(OCc4ccccn4)c(Cl)c3)n2)c(OC)cc1N(C)CCN(C)C [Compound 19, N-(5-(5-chloro-4-(3-chloro-4-(pyridin-2-methoxyl)phenylamino)-pyrimidin-2-ylamino)-2-((2-(dimethylamino)ethyl)(methyl)amino)-4-methoxyl-phenyl)-acrylamide] | 10 to 100 nM | 17.5 nM | > 1000 nM | < 10 nM | 4.9 nM | < 10 nM | 7.3 nM | < 10 nM | 6.4 nM | < 10 nM | 10 to 100 nM | 39.1 nM | 10 to 100 nM | 19.5 nM | > 1000 nM | > 1000 nM | > 1000 nM | > 1000 nM | 100 to 1000 nM | > 1000 nM | GI50 ([4]; A431, EGFR wt, read-out: GI50): 625 nM; GI50 (A549 (EGFR WT); [23]): 978 nM; GI50 (Calu-3 (Her2 amp); [24]): 19.5 nM |
| C=CC(=O)Nc1cc(Nc2nccc(-n3ccc4c(OC)cccc43)n2)c(OC)cc1N(C)CCN(C)C [Compound 99, N-(5-(4-(4-methoxyl-1H-indol-1-yl)-pyrimidin-2-ylamino)-2-(2-(dimethylamino-ethyl)-methyl-amino)-4-methoxyl-phenyl)-acrylamide] | 10 to 100 nM |  |  | < 10 nM |  | 10 to 100 nM |  | 10 to 100 nM |  | < 10 nM | 10 to 100 nM |  | < 10 nM |  | > 1000 nM |  | > 1000 nM |  | 100 to 1000 nM | > 1000 nM | GI50 (H292 (EGFR WT); Table 15, 1000 nM to 0.03 nM serial dilution, read-out: GI50 H292 (EGFR WT)): > 1000 nM; GI50 (H1975 (EGFR L858R/T790M); Table 15, 1000 nM to 0.03 nM serial dilution, read-out: GI50 H1975 (EGFR L858R/T790M)): 9.25 nM; GI50 (PC-9 (EGFR dE746-A750); Table 15, 1000 nM to 0.03 nM serial dilution, read-out: GI50 PC-9 (EGFR dE746-A750)): 14.1 nM; GI50 (N87 (HER2 Amp); Table 16, 1000 nM to 0.03 nM serial dilution, read-out: GI50 N87 (HER2 amp)): 1.35 nM; GI50 (A549 (EGFR WT); A549, Table 15, 1000 nM to 0.03 nM serial dilution, read-out: GI50 A549 (EGFR WT)): > 1000 nM; GI50 (Calu-3 (Her2 amp); Calu-3, Table 16, 1000 nM to 0.03 nM serial dilution, read-out: GI50 Calu3 (HER2 amp)): 3.26 nM |
